Holding throughout (format): cell-based
In assay [1] the test system is Staphylococcus aureus (ATCC 25923). Put plainly: Cell viability assay (resazurin) screening for antibacterial activity. Also on record: key: Positive: A positive result indicates antibacterial activity expressed as growth inhibition; Negative: a negative result indicates no antibacterial activity expressed as bacterial growth at the tested concentration. To be noted: single high concentration of 1 mg/mL. (The colour change of resazurin is a common sign of viable cells or microbes.)

For assay [2], the system named is UDH-2 (environmental isolate, S. saprophyticus). The assay can be described thus: MIC by broth microdilution. To be noted: Staphylococcus saprophyticus. On the procedure: (§1) Bacteria of the genus Staphylococcus were selected for MIC investigation due to its clinical importance. Compounds showing activity against S. aureus (ATCC 25923) were tested against 10 multidrug-resistant strains of Staphylococcus species, including: clinical isolates methicillin-resistant Staphylococcus aureus (MRSA) strains MRSA-1, MRSA-2, and MRSA-3, and environmental isolates S. saprophyticus (strains UDH-1, UDH-2, UDH-3 and UDH-4), S. haemolyticus (strains UDH-6 and UDH-7), and S. epidermidis strain UDH-5.
(§2) All these strains were resistant to at least three antibiotics from different classes, as confirmed by a disk diffusion assay.
(§3) A broth microdilution method was used to measure MIC according to the Clinical and Laboratory Standards Institute guidelines. Two-fold serial dilutions of the test compound (8 concentrations ranged between 100-0.78 μg/mL) were tested. Two reference antibiotics were used as quality controls (ciprofloxacin and amikacin). In each experiment, solvent (DMSO) was used as a negative control, un-treated control (composing of bacteria in Mueller-Hinton broth) was used as a growth control, blank (culture media alone) was used as sterility control. The 96-well microplate with the test compounds was incubated for 20 hours at 37° C. Turbidity in wells indicated bacterial growth. […] For the definite determination of MIC, CellTiter-Blue® Cell Viability Assay (Promega, USA) was used (as above). The MIC was defined as the lowest compound concentration that prevented the color change of the Cell Viability solution (absence of bacterial growth; thus, suspension remained blue in color). For the definite determination of MIC, CellTiter-Blue® Cell Viability Assay (Promega, USA) was used (as above). To each well of the 96-well microplate, 20 μL of the Cell Viability Assay solution was added to the overnight (20 hours culture) and incubated at 37° C. for 4 hours. After the end of the incubation, pink and blue colors were used to differentiate viable from dead bacterial suspensions, respectively. The MIC was defined as the lowest compound concentration that prevented the color change.
(In broth dilution the organism is exposed to a series of concentrations in liquid medium.)

For assay [3], the system named is UDH-3 (environmental isolate, S. saprophyticus). Put plainly: MIC by broth microdilution. The settings on record: for MIC: Staphylococcus saprophyticus, environmental isolate; for times lower than MIC of ciprofloxacin: UDH-3. On the procedure: as §1, §2, §3
The subject of assay [4] is UDH-6 (environmental isolate, S. haemolyticus). Put plainly: MIC by broth microdilution. The settings on record: for MIC: Staphylococcus haemolyticus, environmental isolate. Here is the method: as §1, §2, §3
In assay [5] the test system is UDH-4 (environmental isolate, S. saprophyticus). Put plainly: MIC by broth microdilution. To be noted: Staphylococcus saprophyticus. On the procedure: as §1, §2, §3
In assay [6] the test system is UDH-1 (environmental isolate, S. saprophyticus). The assay can be described thus: MIC by broth microdilution. The settings on record: for MIC: Staphylococcus saprophyticus, environmental isolate; for times lower than MIC of ciprofloxacin: UDH-1. On the procedure: as §1, §2, §3
In assay [7] the test system is UDH-5 (environmental isolate, S. epidermidis). The assay can be described thus: MIC by broth microdilution. To be noted: Staphylococcus epidermidis. On the procedure:
as §1, §2, §3

Assay [8] concerns UDH-7 (environmental isolate, S. haemolyticus). Put plainly: MIC by broth microdilution. To be noted: for MIC: Staphylococcus haemolyticus, environmental isolate. Here is the method: as §1, §2, §3
Assay [9] concerns Bacillus subtilis (environmental isolate). Put plainly: Cell viability assay (resazurin) screening for antibacterial activity. Further details: key: Positive: A positive result indicates antibacterial activity expressed as growth inhibition; Negative: a negative result indicates no antibacterial activity expressed as bacterial growth at the tested concentration. To be noted: single high concentration of 1 mg/mL.

Assay [10] deals with Pseudomonas aeruginosa (ATCC 27853). The assay is described as above. Also on record: key: Positive: A positive result indicates antibacterial activity expressed as growth inhibition; Negative: a negative result indicates no antibacterial activity expressed as bacterial growth at the tested concentration. The settings on record: single high concentration of 1 mg/mL.
The subject of the next assay is S. aureus (ATCC 25923). Put plainly: MIC by broth microdilution. To be noted: Staphylococcus aureus, ATCC25923. Here is the method: as §1, §3
For assay [11], the system named is Enterococcus faecalis (ATCC 29212). Put plainly: Cell viability assay (resazurin) screening for antibacterial activity. Further details: key: Positive: A positive result indicates antibacterial activity expressed as growth inhibition; Negative: a negative result indicates no antibacterial activity expressed as bacterial growth at the tested concentration. To be noted: single high concentration of 1 mg/mL.

For assay [12], the system named is MRSA-2 (clinical isolate, methicillin-resistant Staphylococcus aureus). Put plainly: MIC by broth microdilution. Here is the method: (§4) Bacteria of the genus Staphylococcus were selected for MIC investigation due to its clinical importance.
as §3, with “Two reference antibiotics were used as quality controls (ciprofloxacin and amikacin).” left out

Assay [13] concerns MRSA-1 (clinical isolate, methicillin-resistant Staphylococcus aureus). The assay can be described thus: MIC by broth microdilution. To be noted: for MIC: Staphylococcus aureus, MRSA, clinical isolate. Here is the method: as §4
as §3, with “Two reference antibiotics were used as quality controls (ciprofloxacin and amikacin).” left out

The test system of assay [14] is MRSA-3 (clinical isolate, methicillin-resistant Staphylococcus aureus). The assay can be described thus: MIC by broth microdilution. On the procedure: as §4
as §3, with “Two reference antibiotics were used as quality controls (ciprofloxacin and amikacin).” left out

The subject of assay [15] is Escherichia coli (ATCC 25922). The assay can be described thus: Cell viability assay (resazurin) screening for antibacterial activity. Further details: key: Positive: A positive result indicates antibacterial activity expressed as growth inhibition; Negative: a negative result indicates no antibacterial activity expressed as bacterial growth at the tested concentration. The settings on record: single high concentration of 1 mg/mL.

The term MIC denotes the lowest concentration that inhibits growth of the organism. `COC(=O)CC1COc2c(cc3c4c2CCCN4CCC3)-c2c(NC(C)(C)C)n3c(-c4cc(OC)ccc4OC)csc3[n+]21` (centres unmarked) [Compound 1t]: the “antibacterial activity, Staphylococcus aureus” value in assay [1] is “Positive”. Besides, the MIC worked out at 6.25 µg/mL in assay [2]; 6.25 µg/mL in assay [3]; 12.5 µg/mL in [4]; 6.25 µg/mL in assay [5]; 6.25 µg/mL in [6]; 3.12 µg/mL in assay [7]. Moreover, the MIC in [8] came to 12.5 µg/mL; in the assay on S. aureus (ATCC 25923), 3.12 µg/mL; in assay [12], 3.12 µg/mL; in [13], 6.25 µg/mL; in assay [14] it was 3.12 µg/mL. Besides, the “times lower than MIC of ciprofloxacin” value in assay [6] is “approximately 10 times”. Further, the “antibacterial activity, Bacillus subtilis” value in [9] is “Positive”. For the same molecule, in assay [10], the “antibacterial activity, Pseudomonas aeruginosa” value is reported as “Negative”. For the same molecule, the “antibacterial activity, Enterococcus faecalis” value in [11] was “Positive”. In assay [15], the “antibacterial activity, Escherichia coli” value was “Negative”.
For the molecule `COC(=O)CC1COc2c(cc3c4c2CCCN4CCC3)-c2c(NC(C)(C)C)n3c(-c4ccc(F)c(F)c4)csc3[n+]21` (centres unmarked) [Compound 1s], the “antibacterial activity, Staphylococcus aureus” value in [1] is listed as “Positive”. In addition, the MIC is 25 µg/mL in assay [2]; 12.5 µg/mL in assay [3]; 25 µg/mL in assay [4]; 6.25 µg/mL in assay [5]; 12.5 µg/mL in [6]; 3.12 µg/mL in [7]. Besides, the MIC in assay [8] was found to be 25 µg/mL; with S. aureus (ATCC 25923), 6.25 µg/mL; in assay [12], 6.25 µg/mL; in assay [13] it was 6.25 µg/mL; in [14], 6.25 µg/mL. Besides, the “antibacterial activity, Bacillus subtilis” value in assay [9] is “Positive”. In assay [10], the “antibacterial activity, Pseudomonas aeruginosa” value was “Negative”. In addition, the “antibacterial activity, Enterococcus faecalis” value in assay [11] is reported as “Positive”. Besides, in assay [15], the “antibacterial activity, Escherichia coli” value is listed as “Negative”.
As for `CCN(CC)c1ccc2c(c1)OCC(CC(=O)OC)[n+]1c-2c(NC(C)(C)C)n2c(-c3ccc(OC)cc3)c(-c3ccc(OC)cc3)sc21` (centres unmarked) [Compound 1h], in [1], the “antibacterial activity, Staphylococcus aureus” value is on record as “Positive”. Further, the MIC was 6.25 µg/mL in assay [2]; 3.12 µg/mL in assay [3]; 6.25 µg/mL in assay [4]; 6.25 µg/mL in [5]; 6.25 µg/mL in [6]; 1.56 µg/mL in assay [7]. Also, the MIC in assay [8] turned out to be 12.5 µg/mL; against S. aureus (ATCC 25923) it was 6.25 µg/mL; in [12], 6.25 µg/mL; in [13], 6.25 µg/mL; in [14] it was 3.12 µg/mL. In addition, the entries for the “times lower than MIC of ciprofloxacin” value in assay [3] and in [6] were “approximately 20 times” and “approximately 10 times”, respectively. In assay [9], the “antibacterial activity, Bacillus subtilis” value was “Positive”. Also, the “antibacterial activity, Pseudomonas aeruginosa” value in assay [10] is given as “Negative”. Also, the “antibacterial activity, Enterococcus faecalis” value in [11] is recorded as “Positive”. Further, the “antibacterial activity, Escherichia coli” value in assay [15] is recorded as “Negative”.
On to `COC(=O)CC1COc2c(cc3c4c2CCCN4CCC3)-c2c(NC(C)(C)C)n3c4ccc(Br)cc4sc3[n+]21` (centres unmarked) [Compound 1v], for which the “antibacterial activity, Staphylococcus aureus” value in assay [1] is reported as “Positive”. Also, the MIC amounted to 25 µg/mL in assay [2]; 12.5 µg/mL in assay [3]; 50 µg/mL in [4]; 25 µg/mL in assay [5]; 12.5 µg/mL in assay [6]; 6.25 µg/mL in assay [7]. The MIC in assay [8] stood at 50 µg/mL; with S. aureus (ATCC 25923) it was 12.5 µg/mL; in [12], 12.5 µg/mL; in assay [13] it was 12.5 µg/mL; in assay [14], 12.5 µg/mL. Further, the “antibacterial activity, Bacillus subtilis” value in [9] is reported as “Positive”. Further, in assay [10], the “antibacterial activity, Pseudomonas aeruginosa” value is “Negative”. Moreover, in assay [11], the “antibacterial activity, Enterococcus faecalis” value was “Positive”. Besides, the “antibacterial activity, Escherichia coli” value in assay [15] was “Negative”.
Turning to `COC(=O)CC1COc2c(cc3c4c2CCCN4CCC3)-c2c(NC(C)(C)C)n3c(-c4cccc5c4OCO5)c(C)sc3[n+]21` (centres unmarked) [Compound 1u], in assay [1], the “antibacterial activity, Staphylococcus aureus” value was “Positive”. Besides, the MIC in assay [2] amounted to 6.25 µg/mL; in assay [3], 3.12 µg/mL; in assay [4], 6.25 µg/mL; in assay [5], 6.25 µg/mL; in [6], 6.25 µg/mL; in assay [7] it was 1.56 µg/mL. The minimum inhibitory concentration (MIC) worked out at 6.25 µg/mL in [8]; 3.12 µg/mL in the assay with S. aureus (ATCC 25923); 3.12 µg/mL in assay [12]; 3.12 µg/mL in assay [13]; 3.12 µg/mL in [14]. Moreover, the “times lower than MIC of ciprofloxacin” value is “approximately 20 times” in assay [3], “approximately 10 times” in assay [4] (UDH-6), “approximately 10 times” in assay [6] and “approximately 10 times” in [8] (UDH-7). For the same molecule, the “antibacterial activity, Bacillus subtilis” value in assay [9] is on record as “Positive”. Besides, in assay [10], the “antibacterial activity, Pseudomonas aeruginosa” value is “Negative”. Besides, in assay [11], the “antibacterial activity, Enterococcus faecalis” value is given as “Positive”. Moreover, the “times lower than the MIC of ciprofloxacin” value in assay [13] (MRSA-1) is “approximately 10 times”. Moreover, the “antibacterial activity, Escherichia coli” value in assay [15] is reported as “Negative”.
In the case of `COC(=O)CC1COc2c(cc3c4c2CCCN4CCC3)-c2c(NC(C)(C)C)n3c(-c4ccc(OC)cc4)c(-c4ccc(OC)cc4)sc3[n+]21` (centres unmarked) [Compound 1z], in assay [1], the “antibacterial activity, Staphylococcus aureus” value was “Positive”. The MIC in [2] is 6.25 µg/mL; in assay [3], 12.5 µg/mL; in assay [4], 12.5 µg/mL; in assay [5], 3.12 µg/mL; in [6], 12.5 µg/mL; in assay [7], 1.56 µg/mL. The MIC worked out at 12.5 µg/mL in [8]; 3.12 µg/mL against S. aureus (ATCC 25923); 6.25 µg/mL in [12]; 6.25 µg/mL in assay [13]; 6.25 µg/mL in assay [14]. Also, the “antibacterial activity, Bacillus subtilis” value in assay [9] is listed as “Positive”. Besides, the “antibacterial activity, Pseudomonas aeruginosa” value in [10] is on record as “Negative”. Also, in [11], the “antibacterial activity, Enterococcus faecalis” value is given as “Positive”. In assay [15], the “antibacterial activity, Escherichia coli” value is recorded as “Negative”.

Source of the values: US10526343B2, “Heterocyclic systems and pharmaceutical applications thereof” (University of Sharjah, priority 2018, dated 2020).
